# Laboratory results taken from publication PMC6320914 (Pharmaceutics, 2018).
# “Also recorded” adds a separate entry of the source. Square brackets hold non-standard residues; d marks the D form. Peptide text beside a SMILES is read from it. * marks the point of attachment. Daunorubicin(13-NOCH2CO) = COc1cccc2c1C(=O)c1c(O)c3c(c(O)c1C2=O)C[C@@](O)(C(C)=NOCC(=O)*)C[C@@H]3O[C@H]1C[C@H](N)[C@H](O)[C@H](C)O1; pGlu = O=C1CC[C@@H](C(=O)O)N1; Butyryl = CCCC(=O)*
# Assays:
# [1] = molecular target: T1, GnRH-RI expressed on human prostate cancer (Homo sapiens, UniProt P30968); assay: Radioligand competition with [125I]-triptorelin, human prostate cancer membranes; assay type: binding; conditions: membrane fractions of human prostate cancer specimens, Figure 5
# T1 construct: Tissue samples of human prostate cancer cells were obtained from a patient at the time of initial surgical treatment; from tissue; host or cells: human prostate cancer surgical specimen, cell membrane homogenate
# T1 sequence (P30968 1-328): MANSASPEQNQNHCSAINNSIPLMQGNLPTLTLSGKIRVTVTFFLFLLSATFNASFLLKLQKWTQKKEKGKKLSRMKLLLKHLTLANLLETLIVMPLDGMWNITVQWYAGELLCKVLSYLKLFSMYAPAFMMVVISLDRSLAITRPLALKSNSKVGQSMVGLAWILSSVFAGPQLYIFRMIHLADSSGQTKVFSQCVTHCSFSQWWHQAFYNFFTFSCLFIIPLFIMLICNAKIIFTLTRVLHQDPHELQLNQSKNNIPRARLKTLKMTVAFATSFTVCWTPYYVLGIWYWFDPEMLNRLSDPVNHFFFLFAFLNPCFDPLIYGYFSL
# Experimental: Ligand competition assays with radiolabeled triptorelin were performed to evaluate the binding affinity of K2 and 10 to GnRH-RI expressed on human pituitary and human prostate cancer cells as reported earlier. Tissue samples of human prostate cancer cells were obtained from a patient at the time of initial surgical treatment and normal human pituitary tissue (anterior lobe) derived by autopsy. All subjects gave their informed consent for inclusion before they participated in the study. The collection and the use of these specimens for our studies were conducted in accordance with the Declaration of Helsinki and approved by the local Institutional Ethics Committee (UD REC/IEC 4831-2017). To study the binding affinity of the compounds, cell membrane homogenates were prepared as previously described. Apart from that, triptorelin was radioiodinated using the chloramine-T method, followed by purification by RP-HPLC [34, 40, 41, 44]. To determine the binding affinities of the nonradio-labeled GnRH-III bioconjugates to GnRH-RI, the displacement of [^125I]-GnRH-I-[^6D-Trp] was studied by an in vitro ligand competition assay. […] To determine the protein concentration by the method of Bradford, a Bio-Rad protein assay kit (Bio-Rad Laboratories, USA) was used. The LIGAND-PC computerized curve-fitting program of Munson and Rodbard was used to determine the receptor binding characteristics and IC50 values.
# [2] = molecular target: T1, GnRH-RI expressed on human prostate cancer; set-up: method as in PMID 10647698, PMID 20859992; conditions: concentrations up to 1 µM; cited from earlier work
# [3] = rat liver lysosomal homogenate in 0.2 M NH4OAc buffer (pH 5); conditions: 37 °C, up to 24 h
# [4] = 90% human plasma; conditions: 37 °C, up to 24 h
# [5] = system: MDA-MB-231 human breast cancer cells; assay type: cell-based; conditions: 24 h treatment in serum-free medium (0.068–150 µM), then 48 h in complete medium; alamarBlue fluorescence; mean ± SE, performed twice, four parallels
# Experimental: (§1) Dulbecco’s Modified Eagle Medium (DMEM, Lonza, Basel, Switzerland), supplemented with 10% (v/v) Fetal Bovine Serum (FBS, Lonza), L-glutamine (2 mM, Lonza), non-essential amino acids (NEAA, Sigma-Aldrich Kft), sodium pyruvate (1 mM, Lonza) and Penicillin-Streptomycin (Lonza) was used to culture MCF-7 human breast adenocarcinoma cells (ATCC:HTB-22). HT-29 human colon adenocarcinoma cells (ATCC:HTB-38) were maintained in RPMI-1640 (Lonza), supplied with 10% FBS, L-glutamine and Penicillin-Streptomycin. MDA-MB-231 breast adenocarcinoma cells were cultured in DMEM (Lonza), supplemented with 10% FBS and Penicillin-Streptomycin. Cells were maintained in plastic culture dishes at 37 °C with a humidified atmosphere containing 5% CO2/95% air.
# (§2) 5 × 10^3 cells per well were seeded to 96-well plates (Sarstedt, Nümbrecht, Germany), in a complete cell medium. After 24 h, the cells were treated with bioconjugates in a serum-free medium (concentration range 0.068–150 µM, control wells were treated with a serum-free medium). On the next day, cells were washed two times with a serum-free medium and incubated in a complete medium for 48 h. The cell viability was determined using alamarBlue reagent® (ThermoFisher Scientific) by following the manufacturer’s instructions. A Synergy H4 multi-mode microplate reader (BioTek, Winooski, VT, USA) was used for fluorescence detection (λEx = 570 and at λEM = 620 nm). Experiments were performed twice, using four parallels per concentration. Cell viabilities (and IC50 values) were calculated with Origin Pro8 (OriginLab Corp., Northampton, MA, USA.) using a nonlinear regression (sigmoidal dose–response).
# [6] = system: MCF-7 human breast cancer cells; assay type: cell-based; conditions: 24 h treatment in serum-free medium (0.068–150 µM), then 48 h in complete medium; alamarBlue fluorescence; mean ± SE, performed twice, four parallels
# Experimental: as §1, §2
# [7] = system: HT-29 human colon cancer cells; assay type: cell-based; conditions: 24 h treatment in serum-free medium (0.068–150 µM), then 48 h in complete medium; alamarBlue fluorescence; mean ± SE, performed twice, four parallels
# Experimental: as §1, §2
compound,measurement,setting,value
epidermal growth factor,displacement of [125I]-GnRH-I-[6D-Trp] binding,[1],did not displace the radioligand
somatostatin-14,displacement of triptorelin,[2],not able to displace triptorelin
<E-D-Tic-K(Bu)HDWK(Dau=Aoa)PG-NH2,cleaved bond,[3],Lys(Bu)4-His5; also recorded: His5-Asp6; also recorded: Asp6-Trp7; also recorded: Trp7-Lys(Dau=Aoa)8; also recorded: Lys(Dau=Aoa)8-Pro9; also recorded: Pro9-Gly10
same,fragment found,[3],"<E-D-Tic-K(Bu)HDWK(Dau=Aoa)-OH; also recorded: <E-D-Tic-K(Bu)HD-OH; also recorded: <E-D-Tic-K(Bu)H-OH; also recorded: H-K(Dau=Aoa)P-OH; also recorded: H-Lys(Dau=Aoa)-OH, 1 h"
same,not cleaved,[4],stable for at least 24 h
human growth hormone,displacement of [125I]-GnRH-I-[6D-Trp] binding,[1],did not displace the radioligand
<EHWK(Bu)HDWK(Dau=Aoa)PG-NH2,cleaved bond,[3],"Pro9-Gly10; also recorded: His2-Trp3; also recorded: Trp3-Lys(Bu)4; also recorded: Lys(Bu)4-His5, first_seen, 5 min; also recorded: His5-Asp6; also recorded: Asp6-Trp7; also recorded: Trp7-Lys(Dau=Aoa)8; also recorded: Lys(Dau=Aoa)8-Pro9"
same,not cleaved,[4],stable for at least 24 h
bombesin,displacement of triptorelin,[2],not able to displace triptorelin
CCCC(=O)NCCCC[C@H](NC(=O)[C@H](Cc1c[nH]c2ccccc12)NC(=O)[C@H](Cc1c[nH]cn1)NC(=O)[C@@H]1CCC(=O)N1)C(=O)N[C@@H](Cc1c[nH]cn1)C(=O)N[C@@H](CC(=O)O)C(=O)N[C@@H](Cc1c[nH]c2ccccc12)C(=O)N[C@@H](CCCCNC(=O)CON=C(C)[C@]1(O)Cc2c(O)c3c(c(O)c2[C@@H](O[C@H]2C[C@H](N)[C@H](O)[C@H](C)O2)C1)C(=O)c1c(OC)cccc1C3=O)C(=O)N1CCC[C@H]1C(=O)NCC [compound 14] ([pGlu]HWK(Butyryl)HDWK(Daunorubicin(13-NOCH2CO))P-NHEt),IC50,[5],12.4 ± 2.3 µM
same,IC50,[6],2.23 ± 0.4 µM
same,IC50,[7],17.84 ± 0.08 µM
somatostatin [reference compound],displacement of [125I]-GnRH-I-[6D-Trp] binding,[1],did not displace the radioligand
